Experimental findings from US8324258B2, “F1F0-ATPase inhibitors and related methods” (The Regents of the University of Michigan, priority 2007, dated 2012) are described below.

Bounds are passed on as bounds.

The subject of assay [1] is Ramos cells. In words: Cytotoxicity (cell death) in Ramos cells. The class given is cell-based. How it is done:
(§1) The compounds listed in Table 9 were tested for activity against F1F0-ATPase by measuring ATP synthesis and ATP hydrolysis. In addition, the compounds were assessed for cytotoxicity in Ramos cells Inhibition of ATP synthesis and hydrolysis by the F1F0-ATPase and cytotoxicity in Ramos cells was measured as described in K. M. Johnson et al. Chemistry & Biology 2005, 12, 485-496.

The target of assay [2] is T1, F1F0-ATPase (Bos taurus, UniProt P13621). Put plainly: Inhibition of ATP synthesis by the F1F0-ATPase. The class given is biochemical. The settings on record: IC40: concentration for 40% inhibition. How it is done:
as §1

Assay [3] has as its target T1, F1F0-ATPase. Put plainly: Inhibition of ATP hydrolysis by the F1F0-ATPase. The class given is biochemical. The settings on record: IC40: concentration for 40% inhibition. The procedure: as §1

By EC50 is commonly meant the concentration that produces a half-maximal response. Read a low EC50 as a more potent agent. Regarding `O=C(N=C(NCCc1c[nH]cn1)Nc1ccccc1-c1ccccc1)c1ccccc1Cl` [Compound I-1, (Z/E)-N-((2-(1H-imidazol-4-yl)ethylamino)(biphenyl-2-ylamino)methylene)-2-chlorobenzamide], the EC50 in assay [1] (Ramos cells) was > 30 µM. In addition, the “ATP Synthesis (IC40 μM)” value in assay [2] is >20 µM. In addition, the “ATP Hydrolysis (IC40 μM)” value in assay [3] was >30 µM.
In the same order, the values of `Cc1ccccc1C(=O)N=C(NCCc1c[nH]cn1)Nc1ccccc1-c1ccccc1` [Compound I-3, (E/Z)—N-((2-(1H-imidazol-4-yl)ethylamino)(biphenyl-2-ylamino)methylene)-2-methylbenzamide] are > 30 µM, >20 µM and >30 µM.
The like results for `Cc1cccc(C(=O)N=C(NCCc2c[nH]cn2)Nc2ccccc2-c2ccccc2)c1` [Compound I-4, (E/Z)—N-((2-(1H-imidazol-4-yl)ethylamino)(biphenyl-2-ylamino)methylene)-3-methylbenzamide] were, in that order, > 20 µM, >10 µM and >20 µM.
As to `Cc1ccc(C(=O)N=C(NCCc2c[nH]cn2)Nc2ccccc2-c2ccccc2)cc1` [Compound I-5, (E/Z)—N-((2-(1H-imidazol-4-yl)ethylamino)(biphenyl-2-ylamino)methylene)-4-methylbenzamide], the EC50 in assay [1] (Ramos cells) is > 20 µM. Besides, the “ATP Synthesis (IC40 μM)” value in assay [2] was >10 µM. In assay [3], the “ATP Hydrolysis (IC40 μM)” value is >10 µM.
Regarding `O=C(N=C(NCCc1c[nH]cn1)Nc1ccccc1-c1ccccc1)c1ccccc1` [Compound I-7, (Z/E)-N-((2-(1H-imidazol-4-yl)ethylamino)(biphenyl-2-ylamino)methylene)benzamide], the EC50 in assay [1] (Ramos cells) was > 30 µM. In addition, the “ATP Synthesis (IC40 μM)” value in assay [2] was >20 µM. Also, in assay [3], the “ATP Hydrolysis (IC40 μM)” value was >30 µM.
`O=C(N=C(NCCc1c[nH]cn1)Nc1ccccc1-c1ccccc1)c1cccc(Cl)c1` [Compound I-8, (Z/E)-N-((2-(1H-imidazol-4-yl)ethylamino)(biphenyl-2-ylamino)methylene)-3-chlorobenzamide]: in assay [1] (Ramos cells), the EC50 was > 20 µM. Moreover, the “ATP Synthesis (IC40 μM)” value in assay [2] is >10 µM. The “ATP Hydrolysis (IC40 μM)” value in assay [3] is >10 µM.
For the molecule `O=C(/N=C(/NCCc1c[nH]cn1)Nc1cccc2[nH]ccc12)c1cccc(Cl)c1` [Compound V-1, (Z/E)-N-((2-(1H-imidazol-4-yl)ethylamino)(1H-indol-4-ylamino)methylene)-3-chlorobenzamide], the EC50 in assay [1] (Homo sapiens, Ramos) is > 30 µM. The “ATP Synthesis (IC40 μM)” value in assay [2] is >10 µM. Besides, the “ATP Hydrolysis (IC40 μM)” value in assay [3] was >10 µM.
`O=C(/N=C(/NCCc1c[nH]cn1)Nc1ccc2[nH]ccc2c1)c1cccc(Cl)c1` [Compound V-2, (Z/E)-N-((2-(1H-imidazol-4-yl)ethylamino)(1H-indol-5-ylamino)methylene)-3-chlorobenzamide]: the EC50 in assay [1] (Homo sapiens, Ramos) was > 20 µM. For the same molecule, the “ATP Synthesis (IC40 μM)” value in assay [2] was >10 µM. Moreover, in assay [3], the “ATP Hydrolysis (IC40 μM)” value is >20 µM.
`O=C(/N=C(/NCCc1c[nH]cn1)Nc1ccc2cc[nH]c2c1)c1cccc(Cl)c1` [Compound V-3, (Z/E)-N-((2-(1H-imidazol-4-yl)ethylamino)(1H-indol-6-ylamino)methylene)-3-chlorobenzamide]: the EC50 in assay [1] (Homo sapiens, Ramos) is > 20 µM. Further, in assay [2], the “ATP Synthesis (IC40 μM)” value was >10 µM. Also, the “ATP Hydrolysis (IC40 μM)” value in assay [3] is <10 µM.
The like results for `O=C(/N=C(/NCCc1c[nH]cn1)Nc1cccc2cc[nH]c12)c1cccc(Cl)c1` [Compound V-4, (Z/E)-N-((2-(1H-imidazol-4-yl)ethylamino)(1H-indol-7-ylamino)methylene)-3-chlorobenzamide] were, in that order, > 30 µM, >10 µM and >10 µM.
On to `O=C(N=C(NCCc1c[nH]cn1)Nc1ccc(-c2ccccc2)cc1)c1ccc(Cl)cc1` [II-1, (Z/E)-N-((2-(1H-imidazol-4-yl)ethylamino)(biphenyl-4-ylamino)methylene)-4-chlorobenzamide], for which, in assay [1] (Ramos cells), the EC50 is > 30 µM. Further, the “ATP Synthesis (IC40 μM)” value in assay [2] was >10 µM. In assay [3], the “ATP Hydrolysis (IC40 μM)” value was >10 µM.
For the molecule `Cc1cccc(C(=O)N=C(NCCc2c[nH]cn2)Nc2ccc(-c3ccccc3)cc2)c1` [II-2, (Z/E)-N-((2-(1H-imidazol-4-yl)ethylamino)(biphenyl-4-ylamino)methylene)-3-methylbenzamide], in assay [1] (Ramos cells), the EC50 was > 30 µM. The “ATP Synthesis (IC40 μM)” value in assay [2] is >10 µM. Further, in assay [3], the “ATP Hydrolysis (IC40 μM)” value is >10 µM.
Consider `Cc1ccc(C(=O)N=C(NCCc2c[nH]cn2)Nc2ccc(-c3ccccc3)cc2)cc1` [II-3, (Z/E)-N-((2-(1H-imidazol-4-yl)ethylamino)(biphenyl-4-ylamino)methylene)-4-methylbenzamide], for which the concentration for a half-maximal effect (EC50) in assay [1] (Ramos cells) is < 10 µM. The “ATP Synthesis (IC40 μM)” value in assay [2] was >10 µM. The “ATP Hydrolysis (IC40 μM)” value in assay [3] was >10 µM.
`O=C(N=C(NCCc1c[nH]cn1)Nc1ccc(-c2ccccc2)cc1)c1cccc(C(F)(F)F)c1` [II-4, (Z/E)-N-((2-(1H-imidazol-4-yl)ethylamino)(biphenyl-4-ylamino)methylene)-3-(trifluoromethyl)benzamide]: in assay [1] (Ramos cells), the EC50 is < 10 µM. Further, in assay [2], the “ATP Synthesis (IC40 μM)” value is >10 µM. Also, in assay [3], the “ATP Hydrolysis (IC40 μM)” value was >10 µM.
For the molecule `O=C(N=C(NCCc1c[nH]cn1)Nc1ccc(-c2ccccc2)cc1)c1ccc(C(F)(F)F)cc1` [II-5, (Z/E)-N-((2-(1H-imidazol-4-yl)ethylamino)(biphenyl-4-ylamino)methylene)-4-(trifluoromethyl)benzamide], the EC50 in assay [1] (Ramos cells) was < 10 µM. Also, in assay [2], the “ATP Synthesis (IC40 μM)” value is >10 µM. Also, the “ATP Hydrolysis (IC40 μM)” value in assay [3] is >10 µM.
With `N#Cc1cccc(C(=O)N=C(NCCc2c[nH]cn2)Nc2ccc(-c3ccccc3)cc2)c1` [II-6, (Z/E)-N-((2-(1H-imidazol-4-yl)ethylamino)(biphenyl-4-ylamino)methylene)-3-cyanobenzamide], the half-maximal effective concentration (EC50) in assay [1] (Ramos cells) is > 30 µM. In addition, the “ATP Synthesis (IC40 μM)” value in assay [2] was >20 µM. The “ATP Hydrolysis (IC40 μM)” value in assay [3] is >30 µM.
Turning to `N#Cc1ccc(C(=O)N=C(NCCc2c[nH]cn2)Nc2ccc(-c3ccccc3)cc2)cc1` [II-7, (Z/E)-N-((2-(1H-imidazol-4-yl)ethylamino)(biphenyl-4-ylamino)methylene)-4-cyanobenzamide], the half-maximal effective concentration (EC50) in assay [1] (Ramos cells) was > 30 µM. Moreover, in assay [2], the “ATP Synthesis (IC40 μM)” value is >20 µM. Further, the “ATP Hydrolysis (IC40 μM)” value in assay [3] was >10 µM.
The like results for `O=C(N=C(NCCc1c[nH]cn1)Nc1ccc(-c2ccccc2)cc1)c1cccc(F)c1` [II-8, (Z/E)-N-((2-(1H-imidazol-4-yl)ethylamino)(biphenyl-4-ylamino)methylene)-3-fluorobenzamide] were, in that order, < 10 µM, >10 µM and >10 µM.
In the same order, the values of `O=C(N=C(NCCc1c[nH]cn1)Nc1ccc(-c2ccccc2)cc1)c1ccc(F)cc1` [II-9, (Z/E)-N-((2-(1H-imidazol-4-yl)ethylamino)(biphenyl-4-ylamino)methylene)-4-fluorobenzamide] are > 30 µM, >20 µM and >30 µM.
On to `O=C(N=C(NCCc1c[nH]cn1)Nc1ccc(-c2ccccc2)cc1)c1cccc(Br)c1` [II-10, (Z/E)-N-((2-(1H-imidazol-4-yl)ethylamino)(biphenyl-4-ylamino)methylene)-3-bromobenzamide], for which, in assay [1] (Ramos cells), the EC50 was < 10 µM. The “ATP Synthesis (IC40 μM)” value in assay [2] is >10 µM. The “ATP Hydrolysis (IC40 μM)” value in assay [3] was >10 µM.
Consider `O=C(N=C(NCCc1c[nH]cn1)Nc1ccc(-c2ccccc2)cc1)c1ccc(Br)cc1` [II-11, (Z/E)-N-((2-(1H-imidazol-4-yl)ethylamino)(biphenyl-4-ylamino)methylene)-4-bromobenzamide], for which, in assay [1] (Ramos cells), the EC50 was > 30 µM. Besides, in assay [2], the “ATP Synthesis (IC40 μM)” value was >10 µM. Besides, in assay [3], the “ATP Hydrolysis (IC40 μM)” value is >20 µM.
In the same order, the values of `O=C(N=C(NCCc1c[nH]cn1)Nc1ccc(-c2ccccc2)cc1)c1cccc([N+](=O)[O-])c1` [II-12, (Z/E)-N-((2-(1H-imidazol-4-yl)ethylamino)(biphenyl-4-ylamino)methylene)-3-nitrobenzamide] are > 30 µM, >10 µM and >10 µM.
In the same order, the values of `O=C(N=C(NCCc1c[nH]cn1)Nc1ccc(-c2ccccc2)cc1)c1ccc([N+](=O)[O-])cc1` [II-13, (Z/E)-N-((2-(1H-imidazol-4-yl)ethylamino)(biphenyl-4-ylamino)methylene)-4-nitrobenzamide] are > 30 µM, >20 µM and >30 µM.
The like results for `O=C(N=C(NCCc1c[nH]cn1)Nc1ccc(-c2ccccc2)cc1)c1ccc(Cl)c(Cl)c1` [II-16, (Z/E)-N-((2-(1H-imidazol-4-yl)ethylamino)(biphenyl-4-ylamino)methylene)-3,4-dichlorobenzamide] were, in that order, < 10 µM, <10 µM and <10 µM.
For `O=C(N=C(NCCc1c[nH]cn1)Nc1ccccc1Br)c1cccc(Cl)c1` [III-2, (Z/E)-N-((2-(1H-imidazol-4-yl)ethylamino)(2-bromophenylamino)methylene)-3-chlorobenzamide], in assay [1] (Ramos cells), the EC50 is > 20 µM. The “ATP Synthesis (IC40 μM)” value in assay [2] was <10 µM. Also, the “ATP Hydrolysis (IC40 μM)” value in assay [3] is >20 µM.
For `O=C(N=C(NCCc1c[nH]cn1)Nc1cccc(Br)c1)c1cccc(Cl)c1` [III-3, (Z/E)-N-((2-(1H-imidazol-4-yl)ethylamino)(3-bromophenylamino)methylene)-3-chlorobenzamide], the 50% effective concentration (EC50) in assay [1] (Ramos cells) was > 10 µM. Further, the “ATP Synthesis (IC40 μM)” value in assay [2] was <10 µM. Besides, in assay [3], the “ATP Hydrolysis (IC40 μM)” value is >10 µM.
